Test: xn = mol fraction of the nth substance listed
Details: 283.15 K, Fluid (supercritical or subcritical phases), Vibrating tube method, x1 = 0.97

O=C=O [carbon dioxide] + CO
Details	mass density [kg/m3]
13500 kPa	946.47
13525 kPa	946.63
13550 kPa	946.8
13575 kPa	946.94
13600 kPa	947.04
13625 kPa	947.2
13650 kPa	947.37
13675 kPa	947.53
13700 kPa	947.69
13725 kPa	947.78
13750 kPa	947.94
13775 kPa	948.1
13800 kPa	948.24
13825 kPa	948.4
13850 kPa	948.51
13875 kPa	948.67
13900 kPa	948.84
13925 kPa	948.95
13950 kPa	949.1
13975 kPa	949.24
14000 kPa	949.41
14025 kPa	949.51
14050 kPa	949.65
14075 kPa	949.82
14100 kPa	949.98
14125 kPa	950.11
14150 kPa	950.22
14175 kPa	950.39
14200 kPa	950.55
14225 kPa	950.7
14250 kPa	950.8
14275 kPa	950.96
14300 kPa	951.12
14325 kPa	951.2
14350 kPa	951.37
14375 kPa	951.51
14400 kPa	951.61
14425 kPa	951.77
14450 kPa	951.93
14475 kPa	952.09
14500 kPa	952.19
14525 kPa	952.37
14550 kPa	952.51
14575 kPa	952.59
14600 kPa	952.75
14625 kPa	952.93
14650 kPa	953.08
14675 kPa	953.17
14700 kPa	953.32
14725 kPa	953.48
14750 kPa	953.62
14775 kPa	953.73
14800 kPa	953.88
14825 kPa	954.02
14850 kPa	954.14
14875 kPa	954.28
14900 kPa	954.41
14925 kPa	954.57
14950 kPa	954.68
14975 kPa	954.79
15000 kPa	954.95
15025 kPa	955.09
15050 kPa	955.2
15075 kPa	955.36
15100 kPa	955.44
15125 kPa	955.6
15150 kPa	955.77
15175 kPa	955.88
15200 kPa	956.01
15225 kPa	956.18
15250 kPa	956.27
15275 kPa	956.42
15300 kPa	956.56
15325 kPa	956.66
15350 kPa	956.78
15375 kPa	956.93
15400 kPa	957.07
15425 kPa	957.17
15450 kPa	957.32
15475 kPa	957.47
15500 kPa	957.56
15525 kPa	957.72
15550 kPa	957.84
15575 kPa	957.97
15600 kPa	958.13
15625 kPa	958.22
15650 kPa	958.37
15675 kPa	958.52
15700 kPa	958.62
15725 kPa	958.78
15750 kPa	958.89
15775 kPa	959.05
15800 kPa	959.19
15825 kPa	959.3
15850 kPa	959.43
15875 kPa	959.55
15900 kPa	959.71
15925 kPa	959.84
15950 kPa	959.94
15975 kPa	960.09
16000 kPa	960.25
16025 kPa	960.33
16050 kPa	960.49
16075 kPa	960.6
16100 kPa	960.74
16125 kPa	960.89
16150 kPa	960.98
16175 kPa	961.15
16200 kPa	961.23
16225 kPa	961.39
16250 kPa	961.53
16275 kPa	961.63
16300 kPa	961.74
16325 kPa	961.89
16350 kPa	962.02
16375 kPa	962.15
16400 kPa	962.28
16425 kPa	962.42
16450 kPa	962.53
16475 kPa	962.61
16500 kPa	962.78
16525 kPa	962.86
